{"source": "paper PMC6501583", "about": "(Journal of medicinal chemistry, 2019)", "key": {"rat mGlu7": {"molecular_target": "rat mGlu7 (Rattus norvegicus, UniProt P35400)", "sequence (P35400 35-915)": "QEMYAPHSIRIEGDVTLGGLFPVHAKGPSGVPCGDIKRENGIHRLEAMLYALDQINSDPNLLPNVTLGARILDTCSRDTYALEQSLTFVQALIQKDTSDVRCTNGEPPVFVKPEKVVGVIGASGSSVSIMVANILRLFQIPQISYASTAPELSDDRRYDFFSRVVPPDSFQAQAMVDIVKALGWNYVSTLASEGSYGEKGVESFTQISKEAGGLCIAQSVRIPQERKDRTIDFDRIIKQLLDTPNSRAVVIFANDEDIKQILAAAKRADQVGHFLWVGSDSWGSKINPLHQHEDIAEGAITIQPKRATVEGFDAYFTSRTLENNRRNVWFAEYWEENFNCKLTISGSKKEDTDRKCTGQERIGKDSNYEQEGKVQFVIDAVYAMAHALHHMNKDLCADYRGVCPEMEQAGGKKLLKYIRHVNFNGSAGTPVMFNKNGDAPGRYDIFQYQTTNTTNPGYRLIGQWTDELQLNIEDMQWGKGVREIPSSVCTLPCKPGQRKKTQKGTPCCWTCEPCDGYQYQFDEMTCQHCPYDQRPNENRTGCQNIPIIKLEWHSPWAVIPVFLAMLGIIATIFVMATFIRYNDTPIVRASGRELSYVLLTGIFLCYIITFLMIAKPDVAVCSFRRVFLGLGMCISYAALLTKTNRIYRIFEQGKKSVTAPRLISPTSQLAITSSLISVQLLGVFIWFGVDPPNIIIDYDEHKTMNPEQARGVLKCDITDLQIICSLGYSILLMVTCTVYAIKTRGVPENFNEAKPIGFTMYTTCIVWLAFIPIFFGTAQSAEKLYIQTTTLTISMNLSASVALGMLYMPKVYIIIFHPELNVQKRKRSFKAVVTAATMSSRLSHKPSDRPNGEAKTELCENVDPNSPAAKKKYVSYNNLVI", "type": "cell-based"}, "[1]": {"test": "Predicted hepatic clearance", "type": "in vitro ADME", "settings": "for rat CLhep: Table 1, predicted hepatic clearance; for Rat CLhep: Table 2, predicted hepatic clearance"}, "[2]": {"system": "hippocampus (native tissues)", "settings": "cited from earlier work"}, "30 mg/kg": {"test": "30 mg/kg", "type": "in vivo, rat"}, "[3]": {"test": "Predicted hepatic clearance", "type": "in vitro ADME"}, "[4]": {"test": "Discrete iv and po pharmacokinetics in rat", "type": "in vivo", "settings": "plasma, 0.2 mg/kg"}, "mice [5]": {"system": "mice", "test": "Light/dark box assay", "type": "in vivo, mouse", "settings": "vs vehicle"}, "Rat plasma:brain level": {"test": "Rat plasma:brain level", "type": "in vivo", "settings": "rat PBL IV cassette"}, "mice [6]": {"system": "mice", "test": "Mouse marble-burying assay", "type": "in vivo", "settings": "vs vehicle"}, "mGlu1–6,8": {"system": "mGlu1–6,8", "test": "Selectivity versus the other seven mGlu receptors", "type": "cell-based"}, "mice [7]": {"system": "mice", "test": "Elevated zero maze", "type": "in vivo, mouse"}, "5-HT2B receptor": {"molecular_target": "5-HT2B receptor (Homo sapiens, UniProt P41595)", "sequence (P41595 whole entry)": "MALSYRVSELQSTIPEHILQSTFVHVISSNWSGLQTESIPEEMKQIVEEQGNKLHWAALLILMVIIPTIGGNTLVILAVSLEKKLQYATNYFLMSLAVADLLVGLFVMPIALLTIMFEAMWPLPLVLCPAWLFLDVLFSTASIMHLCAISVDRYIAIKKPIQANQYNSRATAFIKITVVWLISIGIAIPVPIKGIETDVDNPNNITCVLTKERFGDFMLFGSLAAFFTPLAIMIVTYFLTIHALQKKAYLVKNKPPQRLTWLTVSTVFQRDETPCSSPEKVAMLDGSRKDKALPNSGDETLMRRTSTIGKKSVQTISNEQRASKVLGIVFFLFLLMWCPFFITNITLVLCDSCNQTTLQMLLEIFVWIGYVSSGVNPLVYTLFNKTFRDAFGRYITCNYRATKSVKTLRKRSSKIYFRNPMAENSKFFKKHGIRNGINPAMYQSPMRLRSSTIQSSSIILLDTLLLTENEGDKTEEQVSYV", "test": "Eurofins lead profiling panel of 68 GPCRs, ion channels, and transporters", "type": "binding", "settings": "at 10 μM; only target of 68 above 50%"}}, "note": "Entries after “also recorded” stand apart in the source; their conditions may differ."}
{"smiles": "COc1cc(C(=O)Nc2cc(OC(F)(F)F)ccc2-n2cncn2)ccc1OCC(C)(C)C", "note": "[7b]", "values": [{"measurement": "mGlu7 NAM activity (in words)", "setting": "rat mGlu7", "result": "inactive"}]}
{"smiles": "COc1cc(F)c(CCCNc2cc(OC(F)(F)F)ccc2-n2cncn2)cc1OC", "note": "[6c]", "values": [{"measurement": "rat CLhep", "setting": "[1]", "result": 66.4, "unit": "mL/min/kg"}]}
{"smiles": "COc1ccc(C(=O)Nc2cc(OC(F)(F)F)ccc2-n2cncn2)cc1OC", "note": "[compound 5]", "values": [{"measurement": "blocking high-frequency-stimulated LTP in the hippocampus", "setting": "[2]", "result": "robust efficacy"}]}
{"smiles": "COc1cc(C(=O)Nc2cc(OC(F)(F)F)ccc2-n2cncn2)ccc1OCC(C)C", "note": "[7c]", "values": [{"measurement": "Rat CLhep", "setting": "[1]", "result": 38.4, "unit": "mL/min/kg"}, {"measurement": "mGlu7 NAM activity (in words)", "setting": "rat mGlu7", "result": "restored mGlu7 NAM activity"}]}
{"smiles": "COc1cc(C(=O)Nc2cc(OC(F)(F)F)ccc2-n2cncn2)ccc1OCC(F)(F)F", "note": "[7a]", "values": [{"measurement": "mGlu7 NAM activity (in words)", "setting": "rat mGlu7", "result": "inactive"}]}
{"smiles": "COc1cc(F)c(OCCNc2cc(OC(F)(F)F)ccc2-n2cncn2)cc1OC", "note": "[6d]", "values": [{"measurement": "rat CLhep", "setting": "[1]", "result": 66.4, "unit": "mL/min/kg"}]}
{"smiles": "COc1ccc(CCCNc2cc(OC(F)(F)F)ccc2-n2cncn2)cc1OC", "note": "[6b]", "values": [{"measurement": "rat CLhep", "setting": "[1]", "result": 68.1, "unit": "mL/min/kg"}]}
{"smiles": "COc1cc(C(=O)Nc2cc(OC(F)(F)F)ccc2-n2cncn2)ccc1OCC1CC1", "note": "[7d, N-(2-(1H-1,2,4-Triazol-1-yl)-5-(trifluoromethoxy)phenyl)-4-(cyclopropylmethoxy)-3-methoxybenzamide]", "values": [{"measurement": "predicted unbound levels (CSF concentrations) above the in vitro IC50", "setting": "30 mg/kg; at modest doses", "result": "~ 4 fold"}, {"measurement": "[brain]tot", "setting": "30 mg/kg; rat, 30 mg/kg ip", "result": 745, "unit": "nM"}, {"measurement": "[plasma]tot", "setting": "30 mg/kg; rat, 30 mg/kg ip", "result": 598, "unit": "nM"}, {"measurement": "levels in CSF", "setting": "30 mg/kg; rat, 30 mg/kg ip", "result": 1300, "unit": "nM"}, {"measurement": "predicted hepatic clearance in mouse, CLhep", "setting": "[3]", "result": 44.0, "unit": "mL min^–1 kg^–1"}, {"measurement": "clearance at 24 h", "setting": "[4]", "result": 31.5, "unit": "mL/min/kg"}, {"measurement": "total time spent in the light side of the chamber", "setting": "mice [5]; 3 mg/kg ip", "result": "increased total time spent in the light side of the chamber"}, {"measurement": "[brain]tot", "setting": "Rat plasma:brain level", "result": 375, "unit": "nM"}, {"measurement": "number of marbles buried", "setting": "mice [6]; 3 mg/kg, 3 mg/kg", "result": "decreased the number of marbles buried; also recorded: reduced the number of marbles buried"}, {"measurement": "predicted hepatic clearance, rat CLhep", "setting": "[1]", "result": 15.9, "unit": "mL min^–1 kg^–1"}, {"measurement": "Rat CLhep", "setting": "[1]", "result": 15.9, "unit": "mL/min/kg"}, {"measurement": "activity versus mGlu1–6,8", "setting": "mGlu1–6,8", "result": "> 10", "unit": "µM"}, {"measurement": "time spent in the open arms", "setting": "mice [7]; 3 mg/kg ip, vs VEH p < 0.05, 3 mg/kg", "result": "increased total time spent in the open arms; also recorded: increases time spent in the open arms"}, {"measurement": "overall locomotion / distance traveled", "setting": "mice [7]; 10 mg/kg ip, 10 mg/kg", "result": "decrease in overall locomotion; also recorded: decreased distance traveled"}, {"measurement": "compound activity at 5-HT2B receptor", "setting": "5-HT2B receptor", "result": "greater than 50%"}]}
{"smiles": "COc1ccc(CNc2cc(OC(F)(F)F)ccc2-n2cncn2)cc1OC", "note": "[6a]", "values": [{"measurement": "% L-AP4 min", "setting": "rat mGlu7", "result": "17 ± 3", "unit": "%"}]}
{"smiles": "CNCCC(Oc1ccc(C(F)(F)F)cc1)c1ccccc1", "note": "(centres unmarked) [fluoxetine, reference compound]", "values": [{"measurement": "total time spent in the light side of the chamber", "setting": "mice [5]; 15 mg/kg ip", "result": "increased total time spent in the light side of the chamber"}, {"measurement": "number of marbles buried", "setting": "mice [6]; fluoxetine 15 mg/kg", "result": "decreased the number of marbles buried"}]}
